Source: PMC4393083, “Antiviral Activity and Possible Mechanism of Action of Constituents Identified in Paeonia lactiflora Root toward Human Rhinoviruses” (PLoS ONE, 2015)
Like-named read-outs stand apart in the source and are kept apart here.

Tests used:
HRV-4 [1] = experiment: Time-of-addition assay, HRV-4 in MRC5 cells; format: cell-based; conditions: Human rhinovirus sp.
Experimental: The time-of-addition effects of all compounds on HRV-4 were examined according to the method of Choi et al.. In brief, monolayers of MRC5 cells were seeded onto a 96-well culture plate as stated previously. After washing with PBS, 100 μg/mL PA, 20 μg/mL PGG, and 100 μg/mL ribavirin were separately added onto the cells at either before (–1 h), during (0 h), or after (1, 2, 3, 4, 6, 8, 12, 16, 20, and 24 h) HRV-4 infection at 37°C. After 2 days, MTT test and antiviral activity were carried out as stated previously.

HRV-2 = experiment: Real-time qRT-PCR of HRV-2 RNA replication in MRC5 cells; format: cell-based, human rhinovirus; conditions: MRC5, 2 days after infection; 100 μg/mL PA, 20 μg/mL PGG; vs untreated cultures
Experimental: (§1) To evaluate the level of gene expression, real-time qRT-PCR with SYBR Green dye was carried out. HRV-2 or HRV-4 infected and noninfected cultures of MRC5 monolayers grown in 25 cm^2 cell culture flasks (Corning, NY) were treated with 100 μg/mL PA or 20 μg/mL PGG. After incubation at 37°C and 5% CO2 for 2 days, total RNA was extracted from the culture cells using the RNeasy Plus Mini Kit (Qiagen, Hilden, Germany) according to the manufacturer’s instructions. Contaminated genomic DNA was removed using RQ1 RNase-free DNase (Promega, Madison, WI). Complementary DNA (cDNA) was synthesized using 1 μg total RNA through a reverse transcription reaction using the SuperScript First-Strand Synthesis Kit (Invitrogen, Carlsbad, CA). […] The PCR conditions were as follows: 50°C for 2 min, 95°C for 10 min, and then 50 cycles of 95°C for 15 s and either 60°C [β2-microglobulin (B2M), interleukin (IL)-6, IL-8, LDLR, ICAM-1, HRV-2, and HRV-4] or 58°C (B2M and IL-1β) or 55°C [B2M, Toll-like receptor 3 (TLR3), tumor necrosis factor (TNF), and interferon beta (IFNβ)] for 30 s. mRNA expression level of target gene was normalized to mRNA expression level for the housekeeping gene B2M and analyzed by the 2^–ΔΔCT method using StepOne Software v2.1 and DataAssist Software (Applied Biosystems). […]

HRV-4 [2] = experiment: Real-time qRT-PCR of HRV-4 RNA replication in MRC5 cells; format: cell-based, human rhinovirus; conditions: MRC5, 2 days after infection; 100 μg/mL PA, 20 μg/mL PGG; vs untreated cultures
Experimental: as §1

LDLR [3] = experiment: LDLR mRNA expression, qRT-PCR in MRC5; format: cell-based, human; conditions: MRC5, 2 days after HRV-2 or HRV-4 infection; 100 μg/mL PA, 20 μg/mL PGG
Experimental: as §1, with “WI).” for “WI). Complementary DNA (cDNA) was synthesized using 1 μg total RNA through a reverse transcription reaction using the SuperScript First-Strand Synthesis Kit (Invitrogen, Carlsbad, CA).”
The expressions of ICAM-1 and LDLR were examined using real-time qRT-PCR and Western blot. […] The concentrations of ICAM-1 in the test samples were determined from OD values using standard curve of each assay.

mICAM-1 = experiment: Western blot of mICAM-1 in MRC5 cells; format: cell-based, human; conditions: MRC5, 2 days, HRV-2 or HRV-4, 100 μg/mL PA, 20 μg/mL PGG
Experimental: (§2) Cell lysates from infected and noninfected MRC5 cultures 2 days after incubation with or without test compounds were obtained in RIPA buffer and 1% mammalian cell protease inhibitor cocktail according to the manufacturer’s instructions. Working dilutions of primary antibodies were dilulted 500, 2000, and 1000 times for anti-ICAM-1, anti-LDLR, and anti-actin antibodies, respectively. Working dilutions of secondary antibody was 1000, 1000, and 800 for anti-ICAM-1, anti-LDLR, and anti-actin, respectively. Ten micrograms of cell lysates from different treatments were mixed with an equal volume of 5× Laemmli sample buffer, boiled in 10 min, and resolved by electrophoresis in 11% sodium dodecyl sulfate-polyacrylamide gels (SDS-PAGE). […] Differences in protein expressions were quantified using a Molecular Imager Gel Doc XR system (Bio-Rad, Hercules, CA) and normalized to actin expression on the same membrane.
(§3) The expressions of ICAM-1 and LDLR were examined using real-time qRT-PCR and Western blot. Furthermore, concentrations of soluble ICAM-1 (sICAM-1) in cell-free culture supernatants 2 days after treatment were measured using a sICAM-1 ELISA Kit (Pierce Biotechnology, Rockford, IL) according to the manufacturer’s instructions. […] The concentrations of ICAM-1 in the test samples were determined from OD values using standard curve of each assay.

LDLR [4] = experiment: Western blot of LDLR in MRC5 cells; format: cell-based, human; conditions: MRC5, 2 days, regardless of HRV-2 infection, similar with HRV-4, 100 μg/mL PA, 20 μg/mL PGG
Experimental: as §2, §3

IL-6 = IL-6 mRNA expression, qRT-PCR in MRC5; format: cell-based, human; conditions: MRC5, 2 days after HRV-2 or HRV-4 infection; 100 μg/mL PA, 20 μg/mL PGG
Experimental: as §1

TNF = TNF mRNA expression, qRT-PCR in MRC5; format: cell-based, human; conditions: MRC5, 2 days; 100 μg/mL PA, 20 μg/mL PGG; vs untreated cells
Experimental: as §1

IFN-β = IFN-β mRNA expression, qRT-PCR in MRC5; format: cell-based, human; conditions: MRC5, 2 days after HRV-2 or HRV-4 infection; 100 μg/mL PA, 20 μg/mL PGG
Experimental: as §1

TLR3 = TLR3 mRNA expression, qRT-PCR in MRC5; format: cell-based, human; conditions: MRC5, 2 days after infection; 100 μg/mL PA, 20 μg/mL PGG
Experimental: as §1

[5] = HRV4, 0 h, 100 μg/mL PA, 20 μg/mL PGG, 100 μg/mL ribavirin, read-out: inhibition of HRV-4 infection, added at virus inoculation (0 h)
[6] = HRV4, read-out: inhibition of HRV-4 infection, added prior (–1 h) or post (1–24 h) infection, 100 μg/mL PA, 20 μg/mL PGG

Structure (SMILES) | inhibition at 100 µg/mL (HRV-4 [1]; [5]) [%] | inhibition at 100 µg/mL (HRV-4 [1]; [6]) [%] | reduction of HRV-2 RNA replication level (HRV-2) [fold] | reduction of HRV-4 RNA replication level (HRV-4 [2]) [fold] | effect on LDLR mRNA expression (LDLR [3]) | mICAM-1 protein levels vs cultures without treatment (mICAM-1) | effect on LDLR protein expression (LDLR [4]) | effect on HRV-induced IL-6 mRNA expression (IL-6) | effect on TNF mRNA expression (TNF) | effect on HRV-induced IFN-β mRNA expression (IFN-β) | TLR3 mRNA expression vs cultures without treatment (TLR3) | inhibition at 20 µg/mL (HRV-4 [1]; [5]) [%] | inhibition at 20 µg/mL (HRV-4 [1]; [6]) [%]
COc1ccc(C(C)=O)c(O)c1 [PA, paeonol] | 57.2 | ≤ 40 | 30.1 | 16.3 | decreased | similar | no effect | significantly reduced | did not remarkably reduce | meaningfully inhibited | significantly lower | – | –
O=C(OC[C@H]1O[C@@H](OC(=O)c2cc(O)c(O)c(O)c2)[C@H](OC(=O)c2cc(O)c(O)c(O)c2)[C@@H](OC(=O)c2cc(O)c(O)c(O)c2)[C@@H]1OC(=O)c1cc(O)c(O)c(O)c1)c1cc(O)c(O)c(O)c1 [PGG, 1,2,3,4,6-penta-O-galloyl-β-D-glucopyranose] | – | – | 14.3 | 15.1 | decreased | similar | sharp decline | significantly reduced | did not remarkably reduce | meaningfully inhibited | significantly lower | 54.5 | ≤ 40
